Results as given in publication PMC8788626 (Lung cancer (Amsterdam, Netherlands), 2017).
Values joined by “and” are separate entries in the source; they are usually repeats but may differ in a detail not shown here. Equal entries are not always repeated. Each block holds one compound with its values, some of them ahead of it.

How the values were obtained:
[1] = Plasma pharmacokinetics of dacomitinib and metabolite PF-05199265; type: in vivo, patients; details: for Pre-dose (0 h) plasma concentration, mean (CV%) / Pre-dose (0 h) plasma concentration, median: Cycle 0, Day 4, 45 mg dacomitinib q12 h
EGFR-mutant lung cancers = details: first line, subset with EGFR-mutant lung cancers; cited from earlier work
EGFR-mutant lung cancer = details: first-line therapy, standard daily dosing, ARCHER 1050; cited from earlier work
[2] = system: lung cancers harboring EGFR T790M; type: in vivo, patients; details: Cohort A
QT interval = assay: ECG analysis of QTc interval change from baseline; type: in vivo, patients
[3] = system: T790M-negative, otherwise molecularly unselected advanced NSCLC; assay: Phase 2 study of intermittent pulse dacomitinib, efficacy, Cohort B; type: in vivo, patients; details: 95% CI 1.0–3.3 months
[4] = system: patients with advanced NSCLC; details: in vivo
[5] = continuous daily dosing; cited from earlier work
[6] = Cycle 0, Day 4, following 6 doses (q12 h) of 45 mg dacomitinib
[7] = Cycle 1, Day 1, following 3 day washout after 6 doses (q12 h) of 45 mg dacomitinib
[8] = Cycle 1, Day 4, following 5 doses (q12 h) of 60 mg dacomitinib

Pre-dose (0 h) plasma concentration, mean (CV%) [1]: 7.1 ng/mL and 7.1 (161) ng/mL | Pre-dose (0 h) plasma concentration, median [1]: 4.6 ng/mL | AUC0–10, mean (CV%) [1, 6]: 75.0 (148) ng h/mL | AUC0–10, median [1, 6]: 50.8 ng·h/mL | Cmax, mean (CV%) [1, 6]: 8.5 (150) ng/mL | Cmax, median [1, 6]: 5.9 ng/mL | Cmin, mean (CV%) [1, 6]: 6.8 (157) ng/mL | Cmin, median [1, 6]: 4.5 ng/mL | Tmax, median (minimum–maximum) [1, 6]: 5.6 (0–11.0) hr | Pre-dose plasma concentration, mean (CV%) [1, 7]: 3.8 (83) ng/mL | Pre-dose plasma concentration, median [1, 7]: 2.8 ng/mL | Pre-dose plasma concentration, mean (CV%) [1, 8]: 9.0 (93) ng/mL | Pre-dose plasma concentration, median [1, 8]: 7.43 ng/mL
SMILES: O=C(/C=C/CN1CCCCC1)Nc1cc2c(Nc3ccc(F)c(Cl)c3)ncnc2cc1O [PF-05199265]

SMILES: COc1cc2ncnc(Nc3ccc(F)c(Cl)c3)c2cc1NC(=O)/C=C/CN1CCCCC1 [dacomitinib]
estimated median progression-free survival (EGFR-mutant lung cancers): 18.2 months | overall response rate (EGFR-mutant lung cancers): 76% | median progression-free survival (EGFR-mutant lung cancer): 14.7 months | ORR (overall response rate) ([2]; 16 patients, 95% CI 0.2%–30.2%, p-value = 0.15): 6.3% | median PFS ([2]; 95% CI 1.4–4.4 months): 2.3 months | upper limits of the 95% CI for the mean change from baseline in QTc (QTcB, QTcF, QTcS) (QT interval; all Cycle 0 day 4 time points, 45 mg q12 h): < 10 ms | effect on cardiac repolarization (QT interval; at exposures comparable to steady state of 45 mg daily regimen): no effects on cardiac repolarization | median PFS [3]: 1.6 months | Grade 3 treatment-emergent lymphopenia ([4]; human): 13.2% | frequency of the most frequent treatment-related toxicities (diarrhea, rash, stomatitis, nausea, dry skin, paronychia, fatigue, decreased appetite) ([4]; human): > 20 % of patients | treatment-related serious adverse events: dehydration ([4]; human): 2 | treatment-related serious adverse events: diarrhea ([4]; human): 2 | treatment-related serious adverse events: nausea ([4]; human): 1 | Grade 3 hypermagnesemia, patients [4]: three | number of treatment-related serious adverse events [4]: five | patients who discontinued study therapy due to a treatment-related adverse event [4]: No patients | patients with at least one treatment-related adverse event [4]: All patients | patients with treatment-related serious adverse events [4]: three | treatment-related cardiac adverse events [4]: no treatment-related cardiac adverse events | Pre-dose (0 h) plasma concentration, mean (CV%) [1]: 76.4 ng/mL | Pre-dose (0 h) plasma concentration, median [1]: 68.4 ng/mL | Pre-dose (0 h) plasma concentration, mean (CV%) ([1]; listed as Dacomitinib): 76.4 (43) ng/mL | Cmin, mean (CV%) [1, 6]: 71.3 (39) ng/mL | Cmin, median [1, 6]: 65.6 ng/mL | Pre-dose plasma concentration, mean (CV%) [1, 7]: 32.1 (65) ng/mL | Pre-dose plasma concentration, median [1, 7]: 26.9 ng/mL | Pre-dose plasma concentration, mean (CV%) [1, 8]: 108.1 (39) ng/mL | Pre-dose plasma concentration, median [1, 8]: 100 ng/mL | Tmax ([1]; human, plasma, oral, 45 mg): 6.1 h | AUC(0-t) ([1]; human, plasma, oral, 45 mg, AUC0–10, mean (CV%), Cycle 0, Day 4, following 6 doses (q12 h) of 45 mg dacomitinib): 794 ng·h/mL | AUC(0-t) ([1]; human, plasma, oral, 45 mg, AUC0–10, median, Cycle 0, Day 4, following 6 doses (q12 h) of 45 mg dacomitinib): 728 ng·h/mL | Cmax ([1]; human, plasma, oral, 45 mg, mean (CV%), Cycle 0, Day 4, following 6 doses (q12 h) of 45 mg dacomitinib): 96.8 ng/mL | Cmax ([1]; human, plasma, oral, 45 mg, median, Cycle 0, Day 4, following 6 doses (q12 h) of 45 mg dacomitinib): 90.7 ng/mL | maximum tolerated dose [5]: 45 mg daily
